Some test systems named below: LXFL 529 NSCLC; HOP-18 NSCLC; SNB-78 CNS; XF 498 CNS; KM20L2 colon; DMS 273 small cell lung; M19-MEL melanoma; MDA-N.
Assay in all cases: NCI-60 cell line screen, 48 h

These results are taken from PubChem BioAssay (NCI).

Converted amounts (≈) assume the structure as drawn. “And” between values parts separate entries of the source, which are not always exact repeats. Equal values may be shown once.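 Tested at 5 concentrations; 48 h exposure; 96-well plates; endpoints linearly interpolated, else capped at highest concentration. GI50: concentration for 50% inhibition of growth. TGI: total growth inhibition.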 The source made the active and inactive calls. Cut-off read from the data, not from the text of the source: active = GI50 below about 0.43 µM; inactive = the rest.

As to `O=C(Nc1ccc(Cl)cc1)NS(=O)(=O)c1ccc2c(c1)CCC2`, the TGI in the experiment with LXFL 529 NSCLC was above 100000 nM; in the experiment on HOP-18 NSCLC, above 100000 nM; with SNB-78 CNS it was > 100 µM and 51 µg/mL; with XF 498 CNS it was above 100000 nM; with KM20L2 colon, above 100000 nM; with DMS 273 small cell lung, > 100 µM and 39.6 µg/mL. Besides, the TGI is > 100 µM and 58.5 µg/mL in the experiment on M19-MEL melanoma; above 100000 nM in the experiment on MDA-N. In addition, the result in the experiment on LXFL 529 NSCLC, with HOP-18 NSCLC, in the experiment with XF 498 CNS and in the experiment with KM20L2 colon was inactive. Also, the values for the GI50 in the experiment with SNB-78 CNS, in the experiment on DMS 273 small cell lung and with M19-MEL melanoma were 8.37 µg/mL (≈ 23.9 µM), 17.6 µg/mL (≈ 50.3 µM) and 29.8 µg/mL (≈ 85.1 µM), respectively.
With `Cc1cc(O)c2c(c1)C[C@@H](O)C1=C2C(=O)c2c(O)ccc(OC3CC(O)C(OC4CC(OC5CCC(OC6CC(O)C(OC7CC(OC8CCC(O)C(C)O8)C(O)C(C)O7)C(C)O6)C(C)O5)C(O)C(C)O4)C(C)O3)c2C1=O` (some centres not stated), the TGI turned out to be 29.3 nM with LXFL 529 NSCLC; 188 nM in the experiment on HOP-18 NSCLC; 64 nM with SNB-78 CNS; 51.7 nM in the experiment on XF 498 CNS; 191 nM with KM20L2 colon; 68.4 nM in the experiment on DMS 273 small cell lung. Besides, the TGI with M19-MEL melanoma is 19.7 nM; in the experiment with MDA-N, 211 nM and 387 nM and 562 nM. In the experiment with MDA-N, the GI50 is 207 nM and 240 nM.
Take `COc1c(O)c2ccccc2c2cc(O)ccc12`: the TGI in the experiment with LXFL 529 NSCLC was 9900 nM; with HOP-18 NSCLC it was 3720 nM; with SNB-78 CNS, 46600 nM; with XF 498 CNS it was 5130 nM; in the experiment on KM20L2 colon, 46600 nM; with DMS 273 small cell lung, 20500 nM. In addition, the figures for the TGI in the experiment on M19-MEL melanoma and in the experiment with MDA-N were 3590 nM and 2570 nM, respectively.
